Broadly, the inhibition is the percentage by which the read-out fell short of the control.

SMILES strings stand for the structures. Where two headings read alike, the source gives them in different places.

The target of one assay is T1, androgen receptor (Rattus norvegicus, UniProt P15207).
T1 sequence (P15207 1-902): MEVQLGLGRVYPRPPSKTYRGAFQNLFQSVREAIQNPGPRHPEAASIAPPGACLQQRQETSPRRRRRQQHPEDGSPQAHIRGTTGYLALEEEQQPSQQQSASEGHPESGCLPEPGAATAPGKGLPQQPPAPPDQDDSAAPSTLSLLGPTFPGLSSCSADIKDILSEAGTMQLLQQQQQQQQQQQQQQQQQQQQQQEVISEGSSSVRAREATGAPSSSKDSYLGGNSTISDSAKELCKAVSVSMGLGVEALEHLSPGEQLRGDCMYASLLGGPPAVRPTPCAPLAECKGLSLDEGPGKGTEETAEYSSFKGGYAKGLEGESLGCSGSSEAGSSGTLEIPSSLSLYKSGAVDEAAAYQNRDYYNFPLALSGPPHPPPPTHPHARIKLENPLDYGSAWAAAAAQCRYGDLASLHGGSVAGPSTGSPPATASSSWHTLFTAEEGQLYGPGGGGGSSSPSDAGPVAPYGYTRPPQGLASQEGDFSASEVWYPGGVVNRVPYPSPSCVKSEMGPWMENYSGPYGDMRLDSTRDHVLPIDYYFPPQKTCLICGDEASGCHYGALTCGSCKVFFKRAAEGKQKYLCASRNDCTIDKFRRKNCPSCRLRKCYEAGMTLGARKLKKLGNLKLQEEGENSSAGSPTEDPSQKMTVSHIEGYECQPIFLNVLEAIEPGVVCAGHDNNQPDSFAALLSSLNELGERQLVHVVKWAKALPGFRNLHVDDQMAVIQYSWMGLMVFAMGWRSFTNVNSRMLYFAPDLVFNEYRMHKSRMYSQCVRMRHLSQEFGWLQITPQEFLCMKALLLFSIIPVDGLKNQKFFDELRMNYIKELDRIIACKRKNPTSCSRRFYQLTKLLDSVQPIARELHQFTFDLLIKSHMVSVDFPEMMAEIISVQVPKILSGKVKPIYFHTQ
Briefly: L929 androgen receptor functional assay, adenovirus transduction. Format: cell-based. Also noted: expressed in transfected cells. The settings on record: for % Activition @ 3 μM: agonist testing (no R1881), luciferase. As for the experimental part:
L929 cells were plated in 96-well plates at 20,000 cells per well, in DMEM/F12 (GIBCO) containing 10% (v/v) charcoal-treated fetal bovine serum (Hyclone) and lacking phenol red. The plates were then incubated overnight at 37° C. in 5% (v/v) humidified CO2.
Test compound dilutions were prepared in 100% (v/v) DMSO, if necessary. Each dilution was made to 1250× the final desired assay concentration. First, 2 mL of DMEM/F12 lacking phenol red was pipetted into the wells of a 2-mL 96-well assay block. Next, 4 μL of the 1250× test compound dilutions were pipetted into each well of the assay block. The mixtures within the well were then carefully mixed by pipette.
In a 15 mL or 50 mL sterile centrifuge tube, a 2.5 nM (2.5×) dilution of R1881 (methyl-trienolone) in DMEM/F12 lacking phenol red was prepared. In a second 15 mL or 50 mL centrifuge tube a solution containing an equal volume of DMEM to the first and an equal volume of 100% (v/v) DMSO to the volume of R1881 used in the first tube was prepared.
In a 15 mL or 50 mL sterile centrifuge tube, a dilution in DMEM/F12 of the adenovirus AdEasy+rAR at an moi of 1:500 per well was prepared. The medium was removed from the 96-well plates by inversion and dried, inverted, very briefly. As soon as possible after medium removal, 40 μL of the diluted unlabeled test compound was added to each well, in duplicate. To each well designated for antagonist testing was added 40 μL of the 2.5 nM R1881 dilution to the wells for antagonist testing. To each well designated for agonist testing was added 40 μL of the DMSO dilution. Then 20 μL of the diluted adenovirus were added to all wells. The plates were incubated for 48 hours at 37° C. in 5% (v/v) humidified CO2.
To each well was added 100 μL of Steady-Glo luciferase assay substrate (Promega) and the plates were placed on a rotary shaker for 1 min. The plates were then incubated at room temperature in the dark for one hour. The contents of each well were then transferred to a white microtiter plate (Packard) and read on a Luminoskan Ascent (Thermo Lab Systems).
L929 AR percent activity was determined by testing dilutions of the test compound using a concentration of 3000 nM unless otherwise noted. L929 percent inhibition was determined by testing dilutions of the test compound using a concentration of 3000 nM. EC50s and IC50s were determined by testing serial dilutions of the test compound (usually duplicate ten half-log dilutions starting at 10 μM). Luciferase activity per well were measured and EC50s and IC50s determined by linear regression.
Representative compounds of the present invention were tested for functional activity at the androgen receptor according to the procedure described above with results as listed in Table 4.

The subject of assay [1] is castrated male Sprague Dawley rats. Briefly: Ventral prostate and seminal vesicle weight in vivo assay. More on the design: species or system rat; key: A test compound was said to be “active” if the non weight adjusted prostate weight was ≦60 mg or ≧84 mg; they are listed herein as “inactive” as they did not meet the specified criteria defined above. Particulars: immature castrated rats, once daily for five days, usually orally 40 mg/kg, with testosterone propionate 2 mg/kg s.c. As to the method: Immature (approximately 50 g) castrated male Sprague Dawley rats (Charles River) were treated once daily for five days with test compound (usually given orally at 40 mg/kg in a volume of 0.3 mL, in 30% cyclodextrin or 0.5% methylcellulose vehicle) and with testosterone propionate (given subcutaneously by injection at the nape of the neck at 2 mg/kg, in a volume of 0.1 mL in sesame oil). On the sixth day, the rats were euthanized by asphyxiation in carbon dioxide. Ventral prosatates and seminal vesicles were removed and their wet weights determined. Test compound activity was determined as the percent inhibition of testosterone-enhanced tissue weights, with a vehicle-treated control group set to zero percent and a testosterone alone-treated control group set to 100%.
A test compound was said to be “active” if the non weight adjusted prostate weight was ≦60 mg or ≧84 mg.

Setting [2] is: 3 μM, L929 cells, antagonist testing with R1881, luciferase.

In the case of `COC(=O)C1(C)CN(c2ccccc2)C(=O)N1` (racemic) [Compound 4b], at androgen receptor (3 μM, L929 cells), the “% Activition @ 3 μM” value amounted to 0%. Moreover, the “% Inhibition @ 3 μM” value at androgen receptor (setting [2]) is reported as 34%. The “active / inactive by non weight adjusted prostate weight” value in assay [1] is reported as “active”.
In the same order, the values of `COC(=O)C1(C)CN(c2ccc(OC)cc2)C(=O)N1` (racemic) [Compound 4c] are 2%, 5% and “inactive”.
On to `COC(=O)C1(C)CN(c2ccc(Cl)c(C(F)(F)F)c2)C(=O)N1` (racemic) [Compound 4d], for which the “% Activition @ 3 μM” value on androgen receptor (3 μM, L929 cells) is on record as 0%. In addition, the “% Inhibition @ 3 μM” value on androgen receptor (setting [2]) worked out at 1%. Also, the “active / inactive by non weight adjusted prostate weight” value in assay [1] is “inactive”.
On to `COC(=O)C1(C)CN(c2ccc(C#N)c(C(F)(F)F)c2)C(=O)N1` (racemic) [Compound 4e], for which the “% Activition @ 3 μM” value on androgen receptor (3 μM, L929 cells) turned out to be 0%. Also, the “% Inhibition @ 3 μM” value on androgen receptor (setting [2]) was −15%. Moreover, the “active / inactive by non weight adjusted prostate weight” value in assay [1] is “active”.
In the same order, the values of `CC1(C(=O)O)CN(c2ccccc2)C(=O)N1` (racemic) [Compound 5b] are 0%, 32% and “inactive”.
For the compound `COc1ccc(N2CC(C)(C(=O)O)NC2=O)cc1` (racemic) [Compound 5c], at androgen receptor (3 μM, L929 cells), the “% Activition @ 3 μM” value is −5%. Further, on androgen receptor (setting [2]), the “% Inhibition @ 3 μM” value is recorded as −14%. The “active / inactive by non weight adjusted prostate weight” value in assay [1] is “inactive”.
The like results for `CC1(C(=O)O)CN(c2ccc(Cl)c(C(F)(F)F)c2)C(=O)N1` (racemic) [Compound 5d] were, in that order, 0%, −30% and “inactive”.
The like results for `CC1(C(=O)Nc2ccccc2)CN(c2ccccc2)C(=O)N1` (racemic) [Compound 6b] were, in that order, 0%, 54% and “inactive”.
The like results for `COc1ccc(N2CC(C)(C(=O)Nc3ccc(C#N)c(C(F)(F)F)c3)NC2=O)cc1` (racemic) [Compound 6c] were, in that order, 0%, 11% and “inactive”.
As to `CC1(C(=O)Nc2ccc(C#N)c(C(F)(F)F)c2)CN(c2ccccc2)C(=O)N1` (racemic) [Compound 6d], the “% Activition @ 3 μM” value at androgen receptor (3 μM, L929 cells) worked out at 0%. Further, the “% Inhibition @ 3 μM” value on androgen receptor (setting [2]) worked out at 59%. For the same compound, in assay [1], the “active / inactive by non weight adjusted prostate weight” value was “inactive”.
As to `CC1(C(=O)Nc2ccc([N+](=O)[O-])c(C(F)(F)F)c2)CN(c2ccccc2)C(=O)N1` (racemic) [Compound 6e], the “% Activition @ 3 μM” value at androgen receptor (3 μM, L929 cells) turned out to be 2%. Besides, the “% Inhibition @ 3 μM” value on androgen receptor (setting [2]) was 96%. In addition, the “active / inactive by non weight adjusted prostate weight” value in assay [1] is “inactive”.
The like results for `CC1(C(=O)Nc2cccc(C(F)(F)F)c2)CN(c2ccc(F)cc2)C(=O)N1` (racemic) [Compound 6g] were, in that order, 0%, −12% and “inactive”.
For `CC1(C(=O)Nc2cc(C(F)(F)F)cc(C(F)(F)F)c2)CN(c2ccc(F)cc2)C(=O)N1` (racemic) [Compound 6h], at androgen receptor (3 μM, L929 cells), the “% Activition @ 3 μM” value is listed as 0%. Further, the “% Inhibition @ 3 μM” value at androgen receptor (setting [2]) was 21%. For the same compound, in assay [1], the “active / inactive by non weight adjusted prostate weight” value was “active”.
In the same order, the values of `CC1(C(=O)Nc2ccc(C(F)(F)F)nc2)CN(c2ccccc2)C(=O)N1` (racemic) [Compound 6j] are 0%, 29% and “inactive”.
With `CC1(C(=O)O)CN(c2ccc(F)cc2)C(=O)N1` (stereo not drawn) [Compound 5a, 1-(4-Fluoro-phenyl)-4-methyl-2-oxo-imidazolidine-4-carboxylic acid], the “% Activition @ 3 μM” value on androgen receptor (3 μM, L929 cells) is given as 1%. Besides, on androgen receptor (3 μM, L929 cells, antagonist testing with R1881, luciferase, read-out: % Inhibition @ 3 μM), the inhibition at 3 µM came to 15%. Besides, the “active / inactive by non weight adjusted prostate weight” value in assay [1] was “inactive”.
On to `CC1(C(=O)Nc2ccc(C#N)c(C(F)(F)F)c2)CN(c2ccc(F)cc2)C(=O)N1` (stereo not drawn) [Compound 6a, 1-(4-Fluoro-phenyl)-4-methyl-2-oxo-imidazolidine-4-carboxylic acid (4-cyano-3-trifluoromethyl-phenyl)-amide], for which the “% Activition @ 3 μM” value at androgen receptor (3 μM, L929 cells) is 9%. At androgen receptor (L929, read-out: % Inhibition @ 3 μM), the inhibition at 3 µM turned out to be 37%. The “active / inactive by non weight adjusted prostate weight” value in assay [1] is given as “active”.

Source of the values: patent publication US7531565B2, “Imidazolidin-2-one derivatives as selective androgen receptor modulators (SARMS)” (Janssen Pharmaceutica, N.V., priority 2004, dated 2009).
